Measured values reported in patent US20110150974A1, “Agent For Oral Mucosal Administration” (DAIICHI PHARMACEUTICAL CO., LTD., priority 2004, published 2011).
Where a name gives a salt, the structure may show the parent alone.

Legend:
[1] = test system: xerostomia caused by Sjogren's syndrome; conditions: oral preparations, cited from earlier work
[2] = Drug distribution to each tissue in rats (oral mucosal vs oral administration); assay type: in vivo, Rats (male Wistar)
Method: Rats (9-week old male Wistar rats, body weight: 172 to 205 g) were fixed at the dorsal position under urethane (1.25 g/kg i.p.) anesthesia. The test preparation was administered, and plasma and tissues (minor salivary glands, stomach, small intestine, liver, kidney) were collected 0.5, 1, 2, 4 and 8 hours later for observation of the condition of the application site of the preparation and measurement of the concentration in each tissue. The surface of the minor salivary glands was rinsed with physiological saline, and contents were removed from the stomach and the small intestine, which were rinsed in physiological saline. Each collected tissue was stored at −40° C. before the measurement. The medicament concentration in each tissue was measured by LC/MS/MS.

[3] = test system: Human Oral Mucosa; test: Influences of pH and additives on drug absorption from human oral mucosa (gargle test); assay type: in vivo; conditions: healthy volunteers, FIG. 2
Method: Healthy volunteers were made to clean their teeth and then gargle with 10 mL of each test solution (Examples 1 to 4) for 2 minutes, the gargles were collected, and then the oral cavity was washed twice with 10 mL of distilled water for 10 seconds. All the mouth wash was added to the test solution after gargling. The amounts of cevimeline hydrochloride in the test solutions before and after the gargling were measured by HPLC, and the difference between the samples was calculated as the amount of absorption to the oral mucosa.

SMILES: CC1OC2(CS1)CN1CCC2CC1 (racemic) [cevimeline hydrochloride hydrate, (±)-cis-2-methylspiro(1,3-oxathiolane-5,3′-quinuclidine) monohydrochloride monohydrate]
- saliva secretion promoting effect ([1]; JP 61-280497 and 06-024981): confirmed
- adverse reactions in the digestive system ([1]; may cause): nausea, abdominal pain, and vomiting
- mucosal irritancy at the application site ([2]; oral mucosal administration (patch of Example 9)): no mucosal irritancy was observed
- drug concentration in the stomach ([2]; oral mucosal administration (patch of Example 9) compared with oral administration, 0.5-8 hours, FIG. 5): lower
- drug concentration in the small intestine ([2]; oral mucosal administration (patch of Example 9) compared with oral administration, 0.5-8 hours, FIG. 6): lower
- drug concentration in the kidney ([2]; oral mucosal administration (patch of Example 9) compared with oral administration, 0.5-8 hours, FIG. 8): lower
- drug concentration in the liver ([2]; oral mucosal administration (patch of Example 9) compared with oral administration, 0.5-8 hours, FIG. 9): lower
- plasma concentrations ([2]; oral mucosal administration (patch of Example 9) compared with oral administration, changed less in the initial period, FIG. 10): remained constantly low
- concentrations in the minor salivary glands ([2]; oral mucosal administration (patch of Example 9), FIG. 11): markedly high
- medicament concentrations in the stomach, small intestine, kidney and liver in the initial period after administration ([2]; oral mucosal administration (patch of Example 9), up to 2 hours): apparently low
- amount of absorption to the oral mucosa ([3]; pH 8.0, triethanolamine/hydrochloric acid buffer compared with McIlvaine buffer, gargle 10 mL for 2 minutes): larger
- amount absorbed from oral mucosa ([3]; pH 8.0 compared with pH 6.0, gargle): more
- oral mucosal absorbability ([3]; triethanolamine concentration of 1.5% compared with 0.3%, pH 8.0, gargle): better
